Article PMC6149898, “GPCR Modulation of Thieno[2,3-b]pyridine Anti-Proliferative Agents” (Molecules : A Journal of Synthetic Chemistry and Natural …, 2017)

How the values were obtained:
[1] = target: DRD2S (Homo sapiens, UniProt P14416); assay: gpcrMAX PathHunter beta-arrestin
[2] = system: OV:NCI/ADR-RES; set-up: method as in earlier work; conditions: NCI-60 panel; ref [4],[5],[6],[7]; cited from earlier work
[3] = target: NPBWR2 (Homo sapiens, UniProt P48146); assay: gpcrMAX PathHunter beta-arrestin
[4] = system: CNS:SF-268; set-up: method as in earlier work; conditions: NCI-60 panel; ref [4],[5],[6],[7]; cited from earlier work
[5] = target: TACR1 (Homo sapiens, UniProt P25103); assay: gpcrMAX PathHunter beta-arrestin
TACR1, sequence (P25103 whole entry): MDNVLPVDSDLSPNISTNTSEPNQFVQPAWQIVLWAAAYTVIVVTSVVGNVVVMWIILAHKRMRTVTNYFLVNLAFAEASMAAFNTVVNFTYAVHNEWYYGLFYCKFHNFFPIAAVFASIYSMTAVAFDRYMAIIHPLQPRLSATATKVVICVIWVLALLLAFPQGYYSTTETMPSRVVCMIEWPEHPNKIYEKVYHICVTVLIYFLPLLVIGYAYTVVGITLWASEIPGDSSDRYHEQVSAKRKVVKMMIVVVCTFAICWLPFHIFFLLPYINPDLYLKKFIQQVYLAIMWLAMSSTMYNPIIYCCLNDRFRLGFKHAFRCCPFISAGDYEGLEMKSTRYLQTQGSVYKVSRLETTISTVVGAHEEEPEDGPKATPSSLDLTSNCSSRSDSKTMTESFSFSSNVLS

[6] = target: NMU1R (Homo sapiens, UniProt Q9HB89); assay: gpcrMAX PathHunter beta-arrestin
[7] = system: OV:OVCAR-4; set-up: method as in earlier work; conditions: NCI-60 panel; ref [4],[5],[6],[7]; cited from earlier work
[8] = target: CRHR2 (Homo sapiens, UniProt Q13324); assay: gpcrMAX PathHunter beta-arrestin
CRHR2, sequence (Q13324 whole entry): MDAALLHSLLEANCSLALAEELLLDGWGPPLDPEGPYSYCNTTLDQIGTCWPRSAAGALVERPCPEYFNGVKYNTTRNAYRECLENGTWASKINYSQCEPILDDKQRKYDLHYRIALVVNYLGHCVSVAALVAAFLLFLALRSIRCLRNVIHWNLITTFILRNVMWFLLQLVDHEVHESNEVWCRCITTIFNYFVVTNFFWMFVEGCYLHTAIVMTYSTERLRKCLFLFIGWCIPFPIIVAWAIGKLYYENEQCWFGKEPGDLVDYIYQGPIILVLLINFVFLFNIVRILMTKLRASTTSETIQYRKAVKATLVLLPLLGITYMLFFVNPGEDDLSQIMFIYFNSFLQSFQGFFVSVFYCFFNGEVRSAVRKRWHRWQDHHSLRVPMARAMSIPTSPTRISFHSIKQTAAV

[9] = system: ME:SK-MEL-2; set-up: method as in earlier work; conditions: NCI-60 panel; ref [4],[5],[6],[7]; cited from earlier work
[10] = target: UTR2 (Homo sapiens, UniProt Q9UKP6); assay: gpcrMAX PathHunter beta-arrestin
UTR2, sequence (Q9UKP6 whole entry): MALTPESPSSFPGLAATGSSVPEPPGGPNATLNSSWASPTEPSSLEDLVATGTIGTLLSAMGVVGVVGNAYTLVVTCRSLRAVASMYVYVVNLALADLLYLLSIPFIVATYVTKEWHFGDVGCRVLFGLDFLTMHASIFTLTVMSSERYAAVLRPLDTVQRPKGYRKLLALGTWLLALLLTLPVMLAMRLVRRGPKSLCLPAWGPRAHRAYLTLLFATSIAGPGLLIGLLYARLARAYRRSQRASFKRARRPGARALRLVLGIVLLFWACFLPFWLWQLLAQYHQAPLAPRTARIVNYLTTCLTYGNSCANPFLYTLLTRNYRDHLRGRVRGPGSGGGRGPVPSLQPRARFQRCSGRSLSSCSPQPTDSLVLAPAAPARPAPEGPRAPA

[11] = system: CO:HCT-15; set-up: method as in earlier work; conditions: NCI-60 panel; ref [4],[5],[6],[7]; cited from earlier work
[12] = target: CCR3 (Homo sapiens, UniProt P51677); assay: gpcrMAX PathHunter beta-arrestin
CCR3, sequence (P51677 whole entry): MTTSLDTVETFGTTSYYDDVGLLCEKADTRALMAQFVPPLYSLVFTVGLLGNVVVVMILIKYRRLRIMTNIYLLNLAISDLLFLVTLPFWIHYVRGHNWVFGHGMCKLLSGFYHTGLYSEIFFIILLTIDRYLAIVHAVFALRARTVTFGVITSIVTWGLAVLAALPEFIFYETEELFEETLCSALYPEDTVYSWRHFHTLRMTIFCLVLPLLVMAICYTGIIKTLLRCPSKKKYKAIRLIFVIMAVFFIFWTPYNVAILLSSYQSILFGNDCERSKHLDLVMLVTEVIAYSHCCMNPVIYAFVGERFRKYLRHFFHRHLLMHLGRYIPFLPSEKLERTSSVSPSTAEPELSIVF

[13] = system: LC:A549/ATCC; set-up: method as in earlier work; conditions: NCI-60 panel; ref [4],[5],[6],[7]; cited from earlier work
[14] = target: ADRA2A (Homo sapiens, UniProt P08913); assay: gpcrMAX PathHunter beta-arrestin
[15] = system: LC:HOP-92; set-up: method as in earlier work; conditions: NCI-60 panel; ref [4],[5],[6],[7]; cited from earlier work
[16] = target: NPFFR1 (Homo sapiens, UniProt Q9GZQ6); assay: gpcrMAX PathHunter beta-arrestin
[17] = target: PTGER3 (Homo sapiens, UniProt P43115); assay: gpcrMAX PathHunter beta-arrestin
[18] = target: HTR1A (Homo sapiens, UniProt P08908); assay: gpcrMAX PathHunter beta-arrestin
[19] = system: CO:COLO 205; set-up: method as in earlier work; conditions: NCI-60 panel; ref [4],[5],[6],[7]; cited from earlier work
[20] = target: PROKR1 (Homo sapiens, UniProt Q8TCW9); assay: gpcrMAX PathHunter beta-arrestin
PROKR1, sequence (Q8TCW9 whole entry): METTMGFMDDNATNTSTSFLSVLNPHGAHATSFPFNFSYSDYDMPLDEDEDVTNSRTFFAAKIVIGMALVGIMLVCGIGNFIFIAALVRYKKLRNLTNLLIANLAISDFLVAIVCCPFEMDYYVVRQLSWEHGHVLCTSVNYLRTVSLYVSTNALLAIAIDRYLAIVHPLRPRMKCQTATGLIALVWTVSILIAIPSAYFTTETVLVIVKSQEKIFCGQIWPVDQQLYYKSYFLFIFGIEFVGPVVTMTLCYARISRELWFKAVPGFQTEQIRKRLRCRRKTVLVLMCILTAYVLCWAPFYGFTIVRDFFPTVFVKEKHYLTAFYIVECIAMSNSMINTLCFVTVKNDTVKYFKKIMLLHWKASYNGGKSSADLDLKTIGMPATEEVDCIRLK

[21] = target: NPBWR1 (Homo sapiens, UniProt P48145); assay: gpcrMAX PathHunter beta-arrestin
NPBWR1, sequence (P48145 whole entry): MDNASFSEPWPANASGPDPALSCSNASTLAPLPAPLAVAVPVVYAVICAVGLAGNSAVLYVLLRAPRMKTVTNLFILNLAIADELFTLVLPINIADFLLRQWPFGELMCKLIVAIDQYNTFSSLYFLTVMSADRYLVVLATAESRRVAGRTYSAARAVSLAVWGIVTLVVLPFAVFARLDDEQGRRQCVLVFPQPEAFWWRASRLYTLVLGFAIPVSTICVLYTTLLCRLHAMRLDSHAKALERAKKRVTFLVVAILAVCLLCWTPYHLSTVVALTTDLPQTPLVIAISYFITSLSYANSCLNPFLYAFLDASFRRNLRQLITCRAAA

[22] = target: NTSR1 (Homo sapiens, UniProt P30989); assay: gpcrMAX PathHunter beta-arrestin
[23] = target: C5L2 (Homo sapiens, UniProt Q9P296); assay: gpcrMAX PathHunter beta-arrestin
C5L2, sequence (Q9P296 whole entry): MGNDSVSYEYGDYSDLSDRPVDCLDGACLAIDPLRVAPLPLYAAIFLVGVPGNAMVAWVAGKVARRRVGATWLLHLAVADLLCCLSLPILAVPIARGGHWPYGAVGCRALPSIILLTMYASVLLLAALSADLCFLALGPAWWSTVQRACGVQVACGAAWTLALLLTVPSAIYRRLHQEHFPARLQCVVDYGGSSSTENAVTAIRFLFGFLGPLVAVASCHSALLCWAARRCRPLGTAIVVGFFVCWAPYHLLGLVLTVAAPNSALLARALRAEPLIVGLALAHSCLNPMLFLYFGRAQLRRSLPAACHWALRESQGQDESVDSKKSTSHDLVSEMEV

[24] = system: CNS:SNB-19; set-up: method as in earlier work; conditions: NCI-60 panel; ref [4],[5],[6],[7]; cited from earlier work
[25] = target: CALCR-RAMP3 (Homo sapiens, UniProt O60896+P30988); assay: gpcrMAX PathHunter beta-arrestin
[26] = target: CXCR2 (Homo sapiens, UniProt P25025); assay: gpcrMAX PathHunter beta-arrestin
CXCR2, sequence (P25025 whole entry): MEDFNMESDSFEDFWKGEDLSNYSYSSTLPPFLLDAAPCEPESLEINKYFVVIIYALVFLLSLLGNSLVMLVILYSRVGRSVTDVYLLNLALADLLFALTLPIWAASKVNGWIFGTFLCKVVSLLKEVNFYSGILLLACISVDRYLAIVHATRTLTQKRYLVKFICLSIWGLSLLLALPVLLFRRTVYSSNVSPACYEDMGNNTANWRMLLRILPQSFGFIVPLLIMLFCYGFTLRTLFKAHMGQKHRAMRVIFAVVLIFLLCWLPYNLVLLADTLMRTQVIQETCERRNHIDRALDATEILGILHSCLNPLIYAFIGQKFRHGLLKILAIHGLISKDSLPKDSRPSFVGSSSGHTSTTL

[27] = target: BRS3 (Homo sapiens, UniProt P32247); assay: gpcrMAX PathHunter beta-arrestin
[28] = target: DRD2L (Homo sapiens, UniProt P14416); assay: gpcrMAX PathHunter beta-arrestin
DRD2L, sequence (P14416 whole entry): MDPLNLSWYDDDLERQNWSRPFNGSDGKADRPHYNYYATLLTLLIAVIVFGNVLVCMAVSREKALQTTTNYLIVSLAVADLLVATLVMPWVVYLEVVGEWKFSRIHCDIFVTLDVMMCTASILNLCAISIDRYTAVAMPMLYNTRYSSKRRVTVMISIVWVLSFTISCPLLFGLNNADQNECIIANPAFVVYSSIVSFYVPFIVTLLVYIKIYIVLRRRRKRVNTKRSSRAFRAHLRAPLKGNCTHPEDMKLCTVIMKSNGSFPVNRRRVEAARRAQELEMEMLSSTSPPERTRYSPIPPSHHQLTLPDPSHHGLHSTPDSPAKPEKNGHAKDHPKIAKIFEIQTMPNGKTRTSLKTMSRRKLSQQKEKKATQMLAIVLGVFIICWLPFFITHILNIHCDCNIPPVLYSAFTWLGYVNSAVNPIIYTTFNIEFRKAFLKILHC

[29] = target: C5AR1 (Homo sapiens, UniProt P21730); assay: gpcrMAX PathHunter beta-arrestin
C5AR1, sequence (P21730 whole entry): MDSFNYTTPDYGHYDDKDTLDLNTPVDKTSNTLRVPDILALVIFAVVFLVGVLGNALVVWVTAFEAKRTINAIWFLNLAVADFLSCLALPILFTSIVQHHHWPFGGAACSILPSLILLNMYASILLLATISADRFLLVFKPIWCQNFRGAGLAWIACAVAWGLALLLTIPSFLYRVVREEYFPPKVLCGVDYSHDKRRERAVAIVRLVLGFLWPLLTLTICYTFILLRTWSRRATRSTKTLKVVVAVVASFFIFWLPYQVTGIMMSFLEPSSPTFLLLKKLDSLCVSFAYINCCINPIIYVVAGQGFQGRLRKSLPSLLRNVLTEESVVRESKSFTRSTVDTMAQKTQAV

[30] = system: CNS:SF-539; set-up: method as in earlier work; conditions: NCI-60 panel; ref [4],[5],[6],[7]; cited from earlier work
[31] = system: BR:HS 578T; set-up: method as in earlier work; conditions: NCI-60 panel; ref [4],[5],[6],[7]; cited from earlier work
[32] = target: NPY2R (Homo sapiens, UniProt P49146); assay: gpcrMAX PathHunter beta-arrestin
NPY2R, sequence (P49146 whole entry): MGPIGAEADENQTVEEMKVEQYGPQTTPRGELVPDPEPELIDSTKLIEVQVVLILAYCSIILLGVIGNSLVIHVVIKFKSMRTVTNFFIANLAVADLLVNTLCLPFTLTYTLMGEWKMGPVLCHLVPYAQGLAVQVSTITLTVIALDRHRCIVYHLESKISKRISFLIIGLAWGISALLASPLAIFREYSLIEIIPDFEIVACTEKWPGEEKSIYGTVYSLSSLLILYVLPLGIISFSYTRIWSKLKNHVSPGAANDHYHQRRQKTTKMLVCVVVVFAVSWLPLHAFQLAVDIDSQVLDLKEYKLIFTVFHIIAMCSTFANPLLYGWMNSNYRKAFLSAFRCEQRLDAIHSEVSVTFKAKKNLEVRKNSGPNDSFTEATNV

[33] = target: SSTR5 (Homo sapiens, UniProt P35346); assay: gpcrMAX PathHunter beta-arrestin
SSTR5, sequence (P35346 whole entry): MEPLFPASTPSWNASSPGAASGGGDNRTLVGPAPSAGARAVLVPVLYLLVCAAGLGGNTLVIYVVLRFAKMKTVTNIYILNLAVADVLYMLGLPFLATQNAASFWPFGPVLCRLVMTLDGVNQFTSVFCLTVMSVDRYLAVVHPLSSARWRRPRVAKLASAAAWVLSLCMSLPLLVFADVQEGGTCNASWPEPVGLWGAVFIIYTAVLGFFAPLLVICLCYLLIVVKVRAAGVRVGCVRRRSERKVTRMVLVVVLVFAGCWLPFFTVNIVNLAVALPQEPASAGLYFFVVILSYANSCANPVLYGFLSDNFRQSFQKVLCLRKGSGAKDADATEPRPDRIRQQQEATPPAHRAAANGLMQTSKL

[34] = target: BDKRB2 (Homo sapiens, UniProt P30411); assay: gpcrMAX PathHunter beta-arrestin
[35] = target: P2RY2 (Homo sapiens, UniProt P41231); assay: gpcrMAX PathHunter beta-arrestin
[36] = system: PR:PC-3; set-up: method as in earlier work; conditions: NCI-60 panel; ref [4],[5],[6],[7]; cited from earlier work
[37] = target: KISS1R (Homo sapiens, UniProt Q969F8); assay: gpcrMAX PathHunter beta-arrestin
KISS1R, sequence (Q969F8 whole entry): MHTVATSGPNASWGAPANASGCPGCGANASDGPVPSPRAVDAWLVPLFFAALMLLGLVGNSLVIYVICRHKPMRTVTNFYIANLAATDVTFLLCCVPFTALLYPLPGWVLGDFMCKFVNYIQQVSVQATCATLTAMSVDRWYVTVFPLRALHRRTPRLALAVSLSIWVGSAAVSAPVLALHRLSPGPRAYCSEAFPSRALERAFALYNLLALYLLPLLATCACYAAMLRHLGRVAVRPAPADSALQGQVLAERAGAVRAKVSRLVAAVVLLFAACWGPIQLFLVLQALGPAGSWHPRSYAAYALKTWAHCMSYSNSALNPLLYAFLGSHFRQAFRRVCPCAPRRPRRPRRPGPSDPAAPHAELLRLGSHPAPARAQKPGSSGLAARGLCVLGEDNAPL

[38] = system: LC:NCI-H460; set-up: method as in earlier work; conditions: NCI-60 panel; ref [4],[5],[6],[7]; cited from earlier work
[39] = target: SSTR3 (Homo sapiens, UniProt P32745); assay: gpcrMAX PathHunter beta-arrestin
[40] = target: CXCR7 (Homo sapiens, UniProt P25106); assay: gpcrMAX PathHunter beta-arrestin
[41] = target: GLP1R (Homo sapiens, UniProt P43220); assay: gpcrMAX PathHunter beta-arrestin

Cc1c(Cl)cccc1NC(=O)c1sc2nc3c(cc2c1N)C(=O)CCC3 [Compound 1]
inhibition at 10 µM [1]: -6%
GI50 [2]: 46.3 nM
inhibition at 10 µM [3]: -5%
GI50 [4]: 238 nM
inhibition at 10 µM [5]: -3%
inhibition at 10 µM [6]: 2%
GI50 [7]: 604 nM
inhibition at 10 µM [8]: 8%
GI50 [9]: 47.7 nM
inhibition at 10 µM [10]: 10%
GI50 [11]: 70.5 nM
inhibition at 10 µM [12]: -47%
GI50 [13]: 63.1 nM
inhibition at 10 µM [14]: 8%
GI50 [15]: 47.9 nM
inhibition at 10 µM [16]: -55%
inhibition at 10 µM [17]: 11%
inhibition at 10 µM [18]: 3%
GI50 [19]: 51.8 nM
inhibition at 10 µM [20]: 6%
inhibition at 10 µM [21]: -14%
inhibition at 10 µM [22]: 12%
inhibition at 10 µM [23]: -20%
GI50 [24]: 70.1 nM
inhibition at 10 µM [25]: 17%
inhibition at 10 µM [26]: 33%
inhibition at 10 µM [27]: 17%
inhibition at 10 µM [28]: -1%
inhibition at 10 µM [29]: 2%
GI50 [30]: 38.2 nM
GI50 [31]: 48.2 nM
inhibition at 10 µM [32]: -9%
inhibition at 10 µM [33]: -3%
inhibition at 10 µM [34]: 1%
inhibition at 10 µM [35]: -14%
GI50 [36]: 53.5 nM
inhibition at 10 µM [37]: 5%
GI50 [38]: 40.8 nM
inhibition at 10 µM [39]: 5%
inhibition at 10 µM [40]: -15%
inhibition at 10 µM [41]: -1%
